Several values for one entry are separate records, joined by “and”; a condition that tells them apart may be missing. Equal values may be shown once.
Assays:
Format in all cases: cell-based
[1] = system: Escherichia coli; experiment: Minimum inhibitory concentration on Escherichia coli (liquid culture); conditions: 37° C., 24 to 48 hours
Method: Primary screening of liquid culture: the peptides in Examples 1 to 2 were dissolved in pure water to a concentration of 100 μg/mL. Using a micropipette, 10 μL of the peptides were added to a new 96-well plate in order from left to right, starting from the second compartment. Positive and negative controls were established for use. The 96-well plates were arranged vertically, and the peptide concentrations in the control groups were the same as those of the antimicrobial peptides. The control groups included: pure water and bacteria, antimicrobial peptide FK13 and bacteria, antimicrobial peptide HPA3NT3 and bacteria, and ciprofloxacin and bacteria. An aseptic medium was used.
If a 96-deep-well plate was used to culture bacteria, an additional 100 μL of sterile medium was added to all wells.
E. coli was inoculated in LB medium with normal oxygen concentration (21%) for 48 hours. E. coli clones were picked and incubated in LB medium at 37° C. with normal oxygen concentration (21%) for an additional 48 hours. The bacterial concentration was measured and diluted to 107 CFU/mL with culture medium for use.
The prepared fresh bacterial suspension was diluted to 105 CFU/mL and added to the 96-well plate with 90 μL of the bacterial suspension per well. The plate was incubated at 37° C. with a normal oxygen concentration for 24 to 48 hours (Propionibacterium acnes was cultured anaerobically at 37° C. for 24 to 48 hours in an anaerobic bag). The absorbance at 630 nm was measured using a microplate reader, and the degree of turbidity was observed by the naked eye.
(iv) Repetition of Operations: The Operations in (iii) were Repeated Twice, and the Decision to Perform a Third Repetition was Based on the Reproducibility of the Experiment.

[2] = system: Propionibacterium acnes (ATCC: 6919); experiment: Inhibitory effect of AMP-33 on Propionibacterium acnes (viability, OD 630 nm); parameters: Viability of Propionibacterium acnes: unit: %; conditions: for Viability of Propionibacterium acnes: 48 hours, repeated experiments
Method: (1) Propionibacterium acnes was inoculated into Wilkins Chalgren liquid medium and cultured overnight under anaerobic conditions at 37° C. (Labiophy HL-B fully automated anaerobic workstation).
(2) 200 μL of the Wilkins Chalgren liquid culture medium and a predetermined concentration of the peptide AMP-33 were added to a 96-deep-well plate. Then, 10 μL of Propionibacterium acnes was inoculated (mix well before inoculation).
(3) After 48 hours of cultivation under anaerobic conditions at 37° C., the turbidity of the bacterial solution was observed. Then, 100 μL of the solution was taken, and the OD at 630 nm was measured using the enzyme-linked immunosorbent assay (ELISA) reading plate (after multiple blows and mixing).
[formula] • OD Measurement: OD value of the test peptide. • ODneg: OD value with no bacterial inoculation, containing only […] medium. • ODpos: OD value with bacterial inoculation and without inhibitors.

[3] = system: Streptococcus mutans; experiment: Inhibitory effect of AMP-33 on Streptococcus mutans; conditions: 5 and 10 μg/mL, 16 hours
Method: (1) Streptococcus mutans was cultured to the logarithmic phase, then 5 mL of the bacterial solution was centrifuged at 5,000 g for 10 minutes. The organisms were resuspended in Brain-Heart Infusion (BHI) medium, and the concentration of the bacterial solution was adjusted to approximately 2×10^5 CFU/mL using pre-configured McClure's turbidimetric tubes.
(2) Streptococcus mutans was cultured in a microtiter plate (96 wells), and 50 μL of different AMP33 peptides were added (at concentrations of 5 and 10 μg/mL). Then, 100 μL of diluted Streptococcus mutans bacterial fluid was added, followed by 50 μL of BHI medium, resulting in a final concentration of 1×10^5 CFU/mL.
(3) A blank control was provided with equal amounts of medium solution and bacterial solution as that of the experimental group, with at least 3 replicates for each treatment group.
(4) The 96-well plate was placed in a bacterial incubator at 37° C. and incubated at 150 rpm for 16 hours.

Question: With “Example 2: LSKWLKKLGKLLAG (designated as AMP33)” as the substance, how does the “Minimum inhibitory concentration on Escherichia coli” value [1] read?
Answer: 50 µg/mL

Question: And the “Viability of Propionibacterium acnes” value ([2]; 1 μg/mL)?
Answer: 94.82 and 113.75 and 94.03

Question: And the “Viability of Propionibacterium acnes” value ([2]; 2 μg/mL)?
Answer: 79.37 and 65.48 and 68.87

Question: What about the “inhibition of Propionibacterium acnes” value ([2]; 4 ppm) of the same substance?
Answer: over 90%

Question: And the “inhibition rate of Streptococcus mutans” value [3]?
Answer: approximately 100%
